Test results reported in ChEMBL document CHEMBL5131391, “One-pot three-component synthesis of novel pyrazolo[3,4-b]pyridines as potent antileukemic agents” (Eur J Med Chem, 2022).
Active and inactive are the calls of the source. The calls are words filed in the database; no cut-off is given here.

What was measured:
Assay type in all cases: functional
COLO 205 = test: Cytostatic activity in human COLO 205 cells assessed as tumor growth inhibition measured after 48 hrs by NCI protocol based SRB assay
HOP-92 [1] = test: Cytostatic activity in human HOP-92 cells assessed as tumor growth inhibition measured after 48 hrs by NCI protocol based SRB assay
SW-620 = test: Antiproliferative activity against human SW-620 cells assessed as growth inhibition measured after 48 hrs by NCI protocol based SRB assay
NCI/ADR-RES [2] = test: Antiproliferative activity against human NCl/ADR-RES cells assessed as growth inhibition measured after 48 hrs by NCI protocol based SRB assay
SNB-19 = test: Antiproliferative activity against human SNB-19 cells assessed as growth inhibition measured after 48 hrs by NCI protocol based SRB assay
MDA-MB-468 [3] = test: Cytostatic activity in human MDA-MB-468 cells assessed as tumor growth inhibition measured after 48 hrs by NCI protocol based SRB assay
DU-145 [4] = test: Cytostatic activity in human DU-145 cells assessed as tumor growth inhibition measured after 48 hrs by NCI protocol based SRB assay
UO-31 = test: Antiproliferative activity against human UO-31 cells assessed as growth inhibition measured after 48 hrs by NCI protocol based SRB assay
DU-145 [5] = test: Antiproliferative activity against human DU-145 cells assessed as growth inhibition measured after 48 hrs by NCI protocol based SRB assay
MDA-MB-468 [6] = test: Antiproliferative activity against human MDA-MB-468 cells assessed as growth inhibition measured after 48 hrs by NCI protocol based SRB assay
HCT-15 [7] = test: Cytostatic activity in human HCT-15 cells assessed as tumor growth inhibition measured after 48 hrs by NCI protocol based SRB assay
HOP-92 [8] = test: Antiproliferative activity against human HOP-92 cells assessed as growth inhibition measured after 48 hrs by NCI protocol based SRB assay
MDA-MB-231 = test: Antiproliferative activity against human MDA-MB-231 cells assessed as growth inhibition measured after 48 hrs by NCI protocol based SRB assay
SF-295 [9] = test: Antiproliferative activity against human SF-295 cells assessed as growth inhibition measured after 48 hrs by NCI protocol based SRB assay
Hs-578T = test: Cytostatic activity in human Hs-578T cells assessed as tumor growth inhibition measured after 48 hrs by NCI protocol based SRB assay
OVCAR-8 = test: Cytostatic activity in human OVCAR-8 cells assessed as tumor growth inhibition measured after 48 hrs by NCI protocol based SRB assay
U-251 = test: Cytostatic activity in human U-251 cells assessed as tumor growth inhibition measured after 48 hrs by NCI protocol based SRB assay
HCT-15 [10] = test: Antiproliferative activity against human HCT-15 cells assessed as growth inhibition measured after 48 hrs by NCI protocol based SRB assay
MCF7 [11] = test: Cytostatic activity in human MCF7 cells assessed as tumor growth inhibition measured after 48 hrs by NCI protocol based SRB assay
SK-MEL-28 = test: Antiproliferative activity against human SK-MEL-28 cells assessed as growth inhibition measured after 48 hrs by NCI protocol based SRB assay
HL-60(TB) = test: Antiproliferative activity against human HL-60(TB) cells assessed as growth inhibition measured after 48 hrs by NCI protocol based SRB assay
NCI-H522 = test: Antiproliferative activity against human NCI-H522 cells assessed as growth inhibition measured after 48 hrs by NCI protocol based SRB assay
MCF7 [12] = test: Antiproliferative activity against human MCF7 cells assessed as growth inhibition measured after 48 hrs by NCI protocol based SRB assay
SF-539 = test: Antiproliferative activity against human SF-539 cells assessed as growth inhibition measured after 48 hrs by NCI protocol based SRB assay
OVCAR-5 = test: Antiproliferative activity against human OVCAR-5 cells assessed as growth inhibition measured after 48 hrs by NCI protocol based SRB assay
NCI/ADR-RES [13] = test: Cytostatic activity in human NCl/ADR-RES cells assessed as tumor growth inhibition measured after 48 hrs by NCI protocol based SRB assay
SK-OV-3 = test: Cytostatic activity in human SK-OV-3 cells assessed as tumor growth inhibition measured after 48 hrs by NCI protocol based SRB assay
NCI-H460 = test: Antiproliferative activity against human NCI-H460 cells assessed as growth inhibition measured after 48 hrs by NCI protocol based SRB assay
SF-295 [14] = test: Cytostatic activity in human SF-295 cells assessed as tumor growth inhibition measured after 48 hrs by NCI protocol based SRB assay
UACC-62 = test: Antiproliferative activity against human UACC-62 cells assessed as growth inhibition measured after 48 hrs by NCI protocol based SRB assay
CCRF-CEM [15] = test: Cytostatic activity in human CCRF-CEM cells assessed as tumor growth inhibition measured after 48 hrs by NCI protocol based SRB assay
IGROV-1 = test: Cytostatic activity in human IGROV-1 cells assessed as tumor growth inhibition measured after 48 hrs by NCI protocol based SRB assay
HCT-116 = test: Cytostatic activity in human HCT-116 cells assessed as tumor growth inhibition measured after 48 hrs by NCI protocol based SRB assay
CCRF-CEM [16] = test: Antiproliferative activity against human CCRF-CEM cells assessed as growth inhibition measured after 48 hrs by NCI protocol based SRB assay
RS4-11 [17] = test: Induction of cell cycle arrest in human RS4-11 cells assessed as accumulation of cells in subG1 phase at 1.25 to 10 uM measured after 72 hrs by PI staining based flow cytometry analysis; details: dose 1.25-10 µM
RS4-11 [18] = test: Induction of cell cycle arrest in human RS4-11 cells assessed as accumulation of cells in G2/M phase at 1.25 to 10 uM measured after 72 hrs by PI staining based flow cytometry analysis; details: dose 1.25-10 µM
RS4-11 [19] = test: Induction of cell cycle arrest in human RS4-11 cells assessed as accumulation of cells in G2/M phase measured after 48 hrs by PI staining based flow cytometry analysis; details: dose 1.25-10 µM, DDE = dose-dependent effect
[20] = read-out: LC50 (the source's name)

**Q.** For N#Cc1c(-c2ccccc2)nc2c(c(-c3ccccc3)nn2-c2ccccc2)c1-c1ccc(O)cc1, which TGI (COLO 205) is on record?
**A.** 6.31 µM

**Q.** And the TGI (HOP-92 [1])?
**A.** 4.2 µM

**Q.** And the GI50 (SW-620)?
**A.** 1.86 µM

**Q.** And the CC50 (SW-620; [20])?
**A.** 6.72 µM

**Q.** And the GI50 (NCI/ADR-RES [2])?
**A.** 2.27 µM

**Q.** And the CC50 (NCI/ADR-RES [2]; [20])?
**A.** 2.95 µM

**Q.** What about the GI50 (SNB-19) of the same molecule?
**A.** 1.9 µM

**Q.** What about the CC50 (SNB-19; [20]) of the same molecule?
**A.** 7.57 µM

**Q.** What about the TGI (MDA-MB-468 [3]) of the same molecule?
**A.** 5.57 µM

**Q.** What about the TGI (DU-145 [4]) of the same molecule?
**A.** 8.53 µM

**Q.** And the GI50 (UO-31)?
**A.** 2.02 µM

**Q.** What about the CC50 (UO-31; [20]) of the same molecule?
**A.** 8.59 µM

**Q.** And the GI50 (DU-145 [5])?
**A.** 2.62 µM

**Q.** What about the CC50 (DU-145 [5]; [20]) of the same molecule?
**A.** 37.7 µM

**Q.** And the GI50 (MDA-MB-468 [6])?
**A.** 2.41 µM

**Q.** And the CC50 (MDA-MB-468 [6]; [20])?
**A.** 18.5 µM

**Q.** And the TGI (HCT-15 [7])?
**A.** 3.79 µM

**Q.** What about the GI50 (HOP-92 [8]) of the same molecule?
**A.** 2.06 µM

**Q.** And the CC50 (HOP-92 [8]; [20])?
**A.** 8.6 µM

**Q.** And the GI50 (MDA-MB-231)?
**A.** 1.7 µM

**Q.** And the CC50 (MDA-MB-231; [20])?
**A.** 6.44 µM

**Q.** And the GI50 (SF-295 [9])?
**A.** 1.88 µM

**Q.** What about the CC50 (SF-295 [9]; [20]) of the same molecule?
**A.** 9.8 µM

**Q.** And the TGI (Hs-578T)?
**A.** 4.46 µM

**Q.** And the TGI (OVCAR-8)?
**A.** 11.7 µM

**Q.** What about the TGI (U-251) of the same molecule?
**A.** 3.97 µM

**Q.** What about the GI50 (HCT-15 [10]) of the same molecule?
**A.** 1.62 µM

**Q.** And the CC50 (HCT-15 [10]; [20])?
**A.** 8.9 µM

**Q.** What about the TGI (MCF7 [11]) of the same molecule?
**A.** 4.76 µM

**Q.** What about the GI50 (SK-MEL-28) of the same molecule?
**A.** 1.58 µM

**Q.** What about the CC50 (SK-MEL-28; [20]) of the same molecule?
**A.** 5.86 µM

**Q.** What about the GI50 (HL-60(TB)) of the same molecule?
**A.** 3.52 µM

**Q.** What about the CC50 (HL-60(TB); [20]) of the same molecule?
**A.** > 100 µM

**Q.** And the GI50 (NCI-H522)?
**A.** 2.32 µM

**Q.** And the CC50 (NCI-H522; [20])?
**A.** > 100 µM

**Q.** And the GI50 (MCF7 [12])?
**A.** 1.86 µM

**Q.** And the CC50 (MCF7 [12]; [20])?
**A.** 90 µM

**Q.** What about the GI50 (SF-539) of the same molecule?
**A.** 1.25 µM

**Q.** What about the CC50 (SF-539; [20]) of the same molecule?
**A.** 6.1 µM

**Q.** And the GI50 (OVCAR-5)?
**A.** 1.75 µM

**Q.** What about the CC50 (OVCAR-5; [20]) of the same molecule?
**A.** 6.66 µM

**Q.** And the TGI (NCI/ADR-RES [13])?
**A.** 5.62 µM

**Q.** What about the TGI (SK-OV-3) of the same molecule?
**A.** 8.48 µM

**Q.** And the GI50 (NCI-H460)?
**A.** 1.73 µM

**Q.** What about the CC50 (NCI-H460; [20]) of the same molecule?
**A.** 6.13 µM

**Q.** And the TGI (SF-295 [14])?
**A.** 4.29 µM

**Q.** What about the GI50 (UACC-62) of the same molecule?
**A.** 1.7 µM

**Q.** What about the CC50 (UACC-62; [20]) of the same molecule?
**A.** 5.93 µM

**Q.** And the TGI (CCRF-CEM [15])?
**A.** 13.4 µM

**Q.** What about the TGI (IGROV-1) of the same molecule?
**A.** 3.62 µM

**Q.** What about the TGI (HCT-116) of the same molecule?
**A.** 7.32 µM

**Q.** What about the GI50 (CCRF-CEM [16]) of the same molecule?
**A.** 3.13 µM

**Q.** What about the CC50 (CCRF-CEM [16]; [20]) of the same molecule?
**A.** > 100 µM

**Q.** Which Activity (RS4-11 [17]) does the source give for Cc1ccc(-c2nc3c(c(-c4ccccc4)nn3-c3ccccc3)c(-c3ccc(O)cc3)c2C#N)cc1 here?
**A.** Active

**Q.** What about the Activity (RS4-11 [18]) of the same molecule?
**A.** Active

**Q.** And the Activity (RS4-11 [19])?
**A.** Dde
